Experimental data taken from patent US20250354930A1, “IONIC LIQUID ENCAPSULATION OF NIR DYES FOR THE IMPROVEMENT OF BLOODSTAIN DETECTION” (University of Mississippi, priority 2024, published 2025).
Values after ≈ are worked out from the molar mass of the structure shown. Values joined by “and” are separate entries in the source; they are usually repeats but may differ in a detail not shown here. Equal values may be shown once. Read-outs that look alike come from different tables or passages of the source.

Tests used:
[1] = molecular target: T1, human serum albumin (HSA) (Homo sapiens, UniProt P02768); conditions: for free energy of binding: calculated from KA
T1 sequence (P02768 25-609): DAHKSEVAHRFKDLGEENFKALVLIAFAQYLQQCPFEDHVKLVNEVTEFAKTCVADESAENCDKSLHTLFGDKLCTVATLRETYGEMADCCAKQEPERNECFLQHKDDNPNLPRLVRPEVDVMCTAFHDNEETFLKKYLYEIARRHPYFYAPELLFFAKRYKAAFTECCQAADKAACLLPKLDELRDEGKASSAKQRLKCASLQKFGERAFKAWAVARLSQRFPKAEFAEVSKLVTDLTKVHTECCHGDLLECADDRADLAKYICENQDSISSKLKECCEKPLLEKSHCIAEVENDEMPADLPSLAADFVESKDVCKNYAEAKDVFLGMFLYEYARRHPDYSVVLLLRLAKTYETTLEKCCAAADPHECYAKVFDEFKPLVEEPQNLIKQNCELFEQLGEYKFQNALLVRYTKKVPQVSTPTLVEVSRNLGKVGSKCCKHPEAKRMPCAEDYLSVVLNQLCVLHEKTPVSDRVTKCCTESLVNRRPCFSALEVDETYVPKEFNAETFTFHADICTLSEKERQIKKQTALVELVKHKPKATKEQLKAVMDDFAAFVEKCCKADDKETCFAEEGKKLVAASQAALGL

HSA [2] = molecular target: T2, HSA (Homo sapiens, UniProt P02768); assay: Dynamic light scattering size and zeta potential of HSA systems; conditions: 0.1 mg/mL HSA in 10 μM SO3SQ, no IL
T2 sequence (P02768 25-609): as above

HSA [3] = molecular target: T2, HSA; assay: Circular dichroism spectroscopy of HSA; conditions: 1 mg/mL HSA; 10 μM SO3SQ, with or without 160 mM CG (1:1)
Method: CD experiments to determine the impact the 1:1 SO3SQ and CG 1:1 may have on HSA and DNA were performed on a Jasco J-1500 CD spectrophotometer. The measurements were performed using a Jasco Spectrosil 1 mm path length cuvette. Samples containing HSA were prepared at 1 mg/mL in either water, 10 μM SO3SQ in water, and 10 μM SO3SQ in water with 1:1 160 mM CG 1:1 added. The protein scans were conducted at a 200-260 nm range. For measurements involving DNA, bacterial plasmid DNA was used, and the DNA concentration was maintained at 12 nM across all samples due to high instrument sensitivity. CG 1:1 was added at 2.5% v/v to achieve a 160 mM concentration. A solution of 9.14 μM SO3SQ in water was made and added to DNA solutions in 5 μL increments. These scans were completed over a 200-350 nm range.

Aqueous solubility = format: physicochemical; conditions: water
HSA [4] = molecular target: T2, HSA; assay: Isothermal titration calorimetry of HSA titrated into SO3SQ; format: binding
Method: ITC measurements were carried out in triplicate on a Malvern VP-ITC. Uncertainties are provided as the standard error of the mean. The solvent was either buffer alone (25 mM sodium phosphate, pH 6.5) or buffer plus 40 mM CG 1:1. HSA was dialyzed into the appropriate buffer, and solid SO3SQ was dissolved in dialysis buffer to ensure a close buffer match. This was necessary in order to prevent strong heats of dilution that are often observed when ILs are titrated in separately. Both HSA and dye solutions were degassed for 10 min before experiments. A typical experiment contained 60 μM HSA in the syringe and 60 μM dye in the calorimetry cell. A total of 28 injections were typically used, each 10 μL in volume, and 10 min of equilibration time was allowed to occur between injections. Measurements were performed at 25° C. Because injection heats and corresponding signal-to-noise ratios were small, manual baseline fitting was performed using Origin software. Since K and N cannot be determined using this ratio of HSA and dye in the presence of CG 1:1, only the enthalpy is accessible from these measurements. The enthalpy for each ITC experiment was reported as the average enthalpy of the first 10 useable injections, which were all similar. […] For reverse titrations, performed without CG 1:1, N, K, and ΔH were fit using CHASM, and the heat of the final injection was used as the baseline. The number of binding sites per HSA molecule was reported as the inverse value of N from fitting, as is typical for reverse titrations. Finally, titrations were also performed where SO3SQ or HSA was systematically removed, one at a time, in the presence and absence of CG 1:1, to determine whether dilution heats were contributing to the measured enthalpy. In all cases, dilution heats were small, less than 10% of the observed enthalpy, and no further corrections were made.

[5] = molecular target: T1, human serum albumin (HSA); conditions: dissolved in human serum albumin (HSA); cited from earlier work
[6] = in the presence of fetal bovine serum; cited from earlier work
[7] = Conductivity measurements of 160 mM solutions; format: physicochemical
Method: Conductivity was measured using a Thermo Scientific Orion Star […] conductivity meter using a DuraProbe 4-electrode conductivity cell. […] The clean probe was introduced into each solution to record the conductivity. The conductivity was measured in triplicate for each of the solutions.

[8] = 10 μM dye; IL scanned 0-240 mM or additive at 160 mM
[9] = absence of CG 1:1, reverse titration, 25° C.

Question: What does the source list for CC1=C(c2ccc(OCCCCS(=O)(=O)O)cc2)/C(=C2/C(=O)C(c3c(-c4ccc(OCCCCS(=O)(=O)[O-])cc4)c(C)c4ccccn34)C2O)[n+]2ccccc21 (stereo not drawn) [SO3SQ]?
Answer: apparent association constant KA,app of HSA in SO3SQ ([1]; 10 μM SO3SQ, no IL): 3.2×10^5 and 2.0×10^5; free energy of binding ([1]; system containing just the dye): -7.4 kcal/mol; free energy of binding ([1]; system containing the dye and IL): -8.0 kcal/mol; average charge (zeta potential) (HSA [2]): −20±5 mV; average size (HSA [2]): 150±20 nm; effect on the secondary structure of HSA (HSA [3]): increase in the alpha helical content; solubility (Aqueous solubility): ~60 µM (≈ 47.9 µg/mL); K (HSA [4]; [9]): (1.8±0.4)×10^6; N (number of binding sites per HSA molecule) (HSA [4]; [9]): 11.5±0.4; heat of binding, ΔH (HSA [4]; [9]): -18 ± 2 kcal/mol; ΔG° (HSA [4]; [9]): -8.50 ± 0.13 kcal/mol; enthalpy of binding between HSA and SO3SQ, ΔH (HSA [4]; buffer containing 40 mM ionic liquid, 25 mM sodium phosphate pH 6.5, 25° C.): 6.1 ± 0.2 kcal/mol; fluorescence quantum yield ΦF [5]: 61.1%; fluorescence quantum yield ΦF [6]: 58%

Question: For [Cl-].[Na+] [NaCl], which “Conductivity, Mean ± SD” value [7] is on record?
Answer: 20.4 ± 0.2 μS/cm

Question: What about the “Conductivity, Replicate 1” value [7] of the same compound?
Answer: 20.2 μS/cm

Question: And the “Conductivity, Replicate 2” value [7]?
Answer: 20.6 μS/cm

Question: And the “Conductivity, Replicate 3” value [7]?
Answer: 20.3 μS/cm

Question: What about the average conductance [7] of the same compound?
Answer: 20.4±0.2 mS/cm

Question: And the “conductance relative to that of the IL” value [7]?
Answer: 100 ×

Question: For O=C(O)CO [glycolic acid], which “effect on the dye's fluorescence in the presence of blood” value [8] is on record?
Answer: little impact
